Data taken from patent publication US10624897B2, “Chlorobenzene substituted azaaryl compounds” (TAIPEI MEDICAL UNIVERSITY, priority 2015, dated 2020).

Assays:
HL-60 = assay: MTT assay, cell viability; assay type: cell-based; conditions: Homo sapiens; HL-60, AML, 72 hours; read-out: IC50 (μM, Mean ± SD)
Procedure: (§1) Cells were cultured in RPMI-1640 (RT-112, KMS-11, SNU-16, HT-29, HCT-116, NCI—H520, Hep3B, PLC/PRF/5, HL-60, MOLT-4) and DMEM (HepG2, MCF-7, MDA-MB-231) with 10% FBS (v/v) and Penicillin/Streptomycin (100 U/ml). FU-DDLS-1 cell line was maintained in DMEM:F12 medium with 10% FBS. LiSa-2 cell line was maintained in IMDM/RPMI-1640 in a 4:1 ratio supplemented with 10% FBS, 2 mmol/L L-glutamine, and 0.1 mg/mL gentamicin. Human umbilical vein endothelial cells (HUVECs) were grown to confluence on 1% collagen, and maintained in 90% Medium 199 with 25 U/ml heparin, 30 μg/ml endothelial cell growth supplement (ECGS) adjusted to contain 1.5 g/L sodium bicarbonate, 10% FBS and Penicillin/Streptomycin (100 U/ml) Cultures were maintained at 37° C. in a humidified atmosphere of 5% CO2/95% air.
(§2) Cells were seeded in 96-well plates (5,000 cells/well) and incubated overnight for attachment, and were then treated with indicated agents in 10% FBS-supplemented medium for 72 hours. The medium was replaced with MTT (0.5 mg/mL) at 37° C. for 1 hours. After removal of medium, the cells were lysed with 100 μL per well dimethyl sulfoxide (DMSO), and absorbance at 550 nm was measured with microplate reader. The relative cell viability (%) was expressed as a percentage relative to a DMSO control cells.

MOLT-4 = assay: MTT assay, cell viability; assay type: cell-based; conditions: Homo sapiens; MOLT-4, ALL, 72 hours; read-out: IC50 (μM, Mean ± SD)
Procedure: as §1, §2

RT-112 = assay: MTT assay, cell viability; assay type: cell-based; conditions: 72 hours
Procedure: as §1, §2

SNU-16 = assay: MTT assay, cell viability; assay type: cell-based; conditions: 72 hours
Procedure: as §1, §2

HT-29 = assay: MTT assay, cell viability; assay type: cell-based; conditions: Homo sapiens; HT-29, Colorectal, 72 hours; read-out: IC50 (μM, Mean ± SD)
Procedure: as §1, §2

Hep3B = assay: MTT assay, cell viability; assay type: cell-based; conditions: 5 uM, 72 hours
Procedure: as §1, §2

PLC/PRF/5 = assay: MTT assay, cell viability; assay type: cell-based; conditions: PLC5, 5 uM, 72 hours
Procedure: as §1, §2

[1] = test system: RT-112, RT4 and T24 cells; assay: MTT assay, bladder cancer cells with different FGFR3 status; assay type: cell-based; conditions: 72 h, FIG. 1A
Procedure: Cell viability was assessed the MTT assay. […] Data are expressed as means±S.D. (***P<0.001 compares to control group).
BGJ-398, a known selective inhibitor of FGFR1 to FGFR3, was included as a reference compound. […] The major downstream pathways of FGFRs are MAPK, PI3K/AKT, and PLC-γ. RT-112 cells, which express FGFR3-TACC3, are reportedly unable to activate PLCγ due to a deletion of the last exon of FGFR3.

CDK3 = target: T1, CDK3 (Homo sapiens, UniProt Q00526); assay: Kinase binding assay (Kd)
T1 construct: made in house; host or cells: E. coli BL21-derived host (T7 phage) or HEK-293
Procedure: (§3) Kinase assays. For most assays, kinase-tagged T7 phage strains were prepared in an E. coli host derived from the BL21 strain. E. coli were grown to log-phase and infected with T7 phage and incubated with shaking at 32° C. until lysis. The lysates were centrifuged and filtered to remove cell debris. The remaining kinases were produced in HEK-293 cells and subsequently tagged with DNA for qPCR detection. […] The liganded beads were blocked with excess biotin and washed with blocking buffer (SeaBlock (Pierce), 1% BSA, 0.05% Tween 20, 1 mM DTT) to remove unbound ligand and to reduce non-specific binding. […] All reactions were performed in polystyrene 96-well plates in a final volume of 0.135 ml. […] The kinase concentration in the eluates was measured by qPCR.
(§4) An 11-point 3-fold serial dilution of each test compound was prepared in 100% DMSO at 100× final test concentration and subsequently diluted to 1× in the assay (final DMSO concentration=1%). Most Kds were determined using a compound top concentration=30,000 nM.
(§5) Binding constants (Kds) were calculated with a standard dose-response curve using the Hill equation: […]
(§6) The Hill Slope was set to −1. Curves were fitted using a non-linear least square fit with the Levenberg-Marquardt algorithm.

AKT1 = target: T2, AKT1 (Homo sapiens, UniProt P31749); assay: Kinase binding assay (Kd)
T2 construct: made in house; host or cells: E. coli BL21-derived host (T7 phage) or HEK-293
Procedure: as §3, §4, §5, §6

BMPR2 = target: T3, BMPR2 (Homo sapiens, UniProt Q13873); assay: Kinase binding assay (Kd)
T3 construct: made in house; host or cells: E. coli BL21-derived host (T7 phage) or HEK-293
Procedure: as §3, §4, §5, §6

PDGFRA = target: T4, PDGFRA (Homo sapiens, UniProt P16234); assay: Kinase binding assay (Kd)
T4 construct: made in house; host or cells: E. coli BL21-derived host (T7 phage) for most kinases, HEK-293 for the rest
Procedure: as §3, §4, §5, §6

CSNK1D = target: T5, CSNK1D (Homo sapiens, UniProt P48730); assay: Kinase binding assay (Kd)
T5 construct: made in house; host or cells: E. coli BL21-derived host (T7 phage) or HEK-293
Procedure: as §3, §4, §5, §6

PIK3CB = target: T6, PIK3CB (Homo sapiens, UniProt P42338); assay: Lipid kinase binding assay (Kd)
T6 construct: made in house; host or cells: E. coli BL21-derived host (T7 phage) or HEK-293
Procedure: as §3, §4, §5, §6

PIK3CD = target: T7, PIK3CD (Homo sapiens, UniProt O00329); assay: Lipid kinase binding assay (Kd)
T7 construct: made in house; host or cells: E. coli BL21-derived host (T7 phage) or HEK-293
Procedure: as §3, §4, §5, §6

PIP5K1A = target: T8, PIP5K1A (Homo sapiens, UniProt Q99755); assay: Lipid kinase binding assay (Kd)
T8 construct: made in house; host or cells: E. coli BL21-derived host (T7 phage) or HEK-293
Procedure: as §3, §4, §5, §6

PIK3C2G = target: T9, PIK3C2G (Homo sapiens, UniProt O75747); assay: Lipid kinase binding assay (Kd)
T9 construct: made in house; host or cells: E. coli BL21-derived host (T7 phage) or HEK-293
Procedure: as §3, §4, §5, §6

PIP5K2C = target: T10, PIP5K2C (Homo sapiens, UniProt Q8TBX8); assay: Lipid kinase binding assay (Kd)
T10 construct: made in house; host or cells: E. coli BL21-derived host (T7 phage) or HEK-293
Procedure: as §3, §4, §5, §6

PIK3C2B = target: T11, PIK3C2B (Homo sapiens, UniProt O00750); assay: Lipid kinase binding assay (Kd)
T11 construct: made in house; host or cells: E. coli BL21-derived host (T7 phage) or HEK-293
Procedure: as §3, §4, §5, §6

PIKFYVE = target: T12, PIKFYVE (Homo sapiens, UniProt Q9Y2I7); assay: Lipid kinase binding assay (Kd)
T12 construct: made in house; host or cells: E. coli BL21-derived host (T7 phage) or HEK-293
Procedure: as §3, §4, §5, §6

PIP5K2B = target: T13, PIP5K2B (Homo sapiens, UniProt P78356); assay: Lipid kinase binding assay (Kd)
T13 construct: made in house; host or cells: E. coli BL21-derived host (T7 phage) or HEK-293
Procedure: as §3, §4, §5, §6

PIP5K1C = target: T14, PIP5K1C (Homo sapiens, UniProt O60331); assay: Lipid kinase binding assay (Kd)
T14 construct: made in house; host or cells: E. coli BL21-derived host (T7 phage) or HEK-293
Procedure: as §3, §4, §5, §6

PIK3C3 = target: T15, PIK3C3 (Homo sapiens, UniProt Q8NEB9); assay: Lipid kinase binding assay (Kd)
T15 construct: made in house; host or cells: E. coli BL21-derived host (T7 phage) or HEK-293
Procedure: as §3, §4, §5, §6

T12 sequence (Q9Y2I7 whole entry): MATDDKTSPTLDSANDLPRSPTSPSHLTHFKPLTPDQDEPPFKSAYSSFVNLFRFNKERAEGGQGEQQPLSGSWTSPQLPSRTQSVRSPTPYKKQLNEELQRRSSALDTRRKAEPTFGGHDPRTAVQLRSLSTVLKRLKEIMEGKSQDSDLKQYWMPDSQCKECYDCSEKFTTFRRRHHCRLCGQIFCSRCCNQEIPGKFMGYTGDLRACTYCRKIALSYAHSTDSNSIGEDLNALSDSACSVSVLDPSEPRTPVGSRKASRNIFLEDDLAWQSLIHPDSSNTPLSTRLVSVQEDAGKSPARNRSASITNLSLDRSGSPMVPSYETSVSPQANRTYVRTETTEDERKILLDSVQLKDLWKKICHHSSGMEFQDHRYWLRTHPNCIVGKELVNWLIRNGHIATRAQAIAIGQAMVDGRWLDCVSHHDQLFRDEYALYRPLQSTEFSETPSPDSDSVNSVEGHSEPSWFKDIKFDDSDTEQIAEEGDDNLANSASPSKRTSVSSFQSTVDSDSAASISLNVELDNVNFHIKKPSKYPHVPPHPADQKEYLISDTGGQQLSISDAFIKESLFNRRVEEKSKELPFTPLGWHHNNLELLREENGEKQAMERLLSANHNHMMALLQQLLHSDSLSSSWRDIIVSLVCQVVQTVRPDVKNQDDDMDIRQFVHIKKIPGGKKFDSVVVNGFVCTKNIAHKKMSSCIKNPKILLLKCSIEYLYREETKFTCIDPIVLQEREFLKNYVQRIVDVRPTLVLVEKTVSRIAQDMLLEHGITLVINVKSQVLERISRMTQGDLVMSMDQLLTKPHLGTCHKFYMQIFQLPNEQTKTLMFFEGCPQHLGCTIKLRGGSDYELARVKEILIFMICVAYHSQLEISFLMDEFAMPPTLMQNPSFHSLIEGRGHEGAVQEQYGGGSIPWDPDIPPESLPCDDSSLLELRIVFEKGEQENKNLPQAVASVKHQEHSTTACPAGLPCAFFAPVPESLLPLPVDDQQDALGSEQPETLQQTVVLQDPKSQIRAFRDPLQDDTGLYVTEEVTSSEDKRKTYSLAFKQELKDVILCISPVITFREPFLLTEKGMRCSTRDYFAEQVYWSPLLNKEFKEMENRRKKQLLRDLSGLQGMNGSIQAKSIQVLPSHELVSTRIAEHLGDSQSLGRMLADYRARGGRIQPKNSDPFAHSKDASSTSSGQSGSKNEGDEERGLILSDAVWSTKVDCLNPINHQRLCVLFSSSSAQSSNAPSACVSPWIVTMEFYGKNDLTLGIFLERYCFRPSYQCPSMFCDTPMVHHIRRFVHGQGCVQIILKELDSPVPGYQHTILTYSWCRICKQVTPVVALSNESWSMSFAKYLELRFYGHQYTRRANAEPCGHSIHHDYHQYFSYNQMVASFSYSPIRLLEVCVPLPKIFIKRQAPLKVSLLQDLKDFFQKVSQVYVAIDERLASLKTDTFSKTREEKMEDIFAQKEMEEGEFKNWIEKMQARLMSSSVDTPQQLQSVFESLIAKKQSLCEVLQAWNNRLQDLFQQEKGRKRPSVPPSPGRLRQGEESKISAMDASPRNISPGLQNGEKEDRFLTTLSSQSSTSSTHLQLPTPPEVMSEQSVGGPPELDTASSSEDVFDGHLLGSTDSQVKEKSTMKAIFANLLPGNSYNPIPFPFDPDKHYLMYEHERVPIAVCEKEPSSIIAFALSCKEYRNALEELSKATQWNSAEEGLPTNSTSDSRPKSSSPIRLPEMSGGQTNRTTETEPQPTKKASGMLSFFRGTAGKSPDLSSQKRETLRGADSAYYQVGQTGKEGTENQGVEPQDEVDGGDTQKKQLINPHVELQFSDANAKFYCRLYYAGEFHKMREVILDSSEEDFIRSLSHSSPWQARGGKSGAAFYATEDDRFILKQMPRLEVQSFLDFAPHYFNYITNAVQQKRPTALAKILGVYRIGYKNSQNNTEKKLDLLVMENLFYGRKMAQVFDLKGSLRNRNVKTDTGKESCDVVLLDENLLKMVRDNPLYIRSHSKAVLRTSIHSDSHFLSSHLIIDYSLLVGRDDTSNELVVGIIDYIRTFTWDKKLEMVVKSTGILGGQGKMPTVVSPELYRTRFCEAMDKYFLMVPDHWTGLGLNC
T3 sequence (Q13873 27-1038): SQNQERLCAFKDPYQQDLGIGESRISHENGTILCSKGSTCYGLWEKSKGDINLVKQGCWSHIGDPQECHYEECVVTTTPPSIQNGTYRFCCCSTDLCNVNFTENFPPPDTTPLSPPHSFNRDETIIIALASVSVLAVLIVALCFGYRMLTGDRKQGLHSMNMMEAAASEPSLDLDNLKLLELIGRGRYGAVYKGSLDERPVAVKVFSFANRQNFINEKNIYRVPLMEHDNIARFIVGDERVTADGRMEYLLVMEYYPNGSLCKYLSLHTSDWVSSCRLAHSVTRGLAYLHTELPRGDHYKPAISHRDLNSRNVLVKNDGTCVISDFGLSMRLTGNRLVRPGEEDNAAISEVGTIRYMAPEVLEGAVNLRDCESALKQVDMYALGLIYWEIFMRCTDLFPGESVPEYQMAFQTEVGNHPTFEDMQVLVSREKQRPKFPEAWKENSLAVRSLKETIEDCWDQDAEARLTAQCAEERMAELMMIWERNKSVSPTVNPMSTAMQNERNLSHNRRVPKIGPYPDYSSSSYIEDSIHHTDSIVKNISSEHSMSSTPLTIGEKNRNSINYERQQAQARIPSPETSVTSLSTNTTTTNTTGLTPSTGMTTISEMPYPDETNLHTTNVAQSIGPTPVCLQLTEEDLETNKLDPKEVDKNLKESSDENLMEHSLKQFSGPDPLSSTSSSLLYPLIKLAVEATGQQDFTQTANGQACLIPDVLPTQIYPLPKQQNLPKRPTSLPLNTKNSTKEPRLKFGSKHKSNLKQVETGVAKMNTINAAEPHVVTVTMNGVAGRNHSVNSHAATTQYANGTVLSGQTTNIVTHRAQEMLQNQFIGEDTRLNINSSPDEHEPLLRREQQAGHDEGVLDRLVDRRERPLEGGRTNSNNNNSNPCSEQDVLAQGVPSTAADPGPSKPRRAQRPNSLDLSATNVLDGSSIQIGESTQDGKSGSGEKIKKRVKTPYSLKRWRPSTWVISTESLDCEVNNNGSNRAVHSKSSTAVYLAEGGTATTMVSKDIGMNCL
T14 sequence (O60331 whole entry): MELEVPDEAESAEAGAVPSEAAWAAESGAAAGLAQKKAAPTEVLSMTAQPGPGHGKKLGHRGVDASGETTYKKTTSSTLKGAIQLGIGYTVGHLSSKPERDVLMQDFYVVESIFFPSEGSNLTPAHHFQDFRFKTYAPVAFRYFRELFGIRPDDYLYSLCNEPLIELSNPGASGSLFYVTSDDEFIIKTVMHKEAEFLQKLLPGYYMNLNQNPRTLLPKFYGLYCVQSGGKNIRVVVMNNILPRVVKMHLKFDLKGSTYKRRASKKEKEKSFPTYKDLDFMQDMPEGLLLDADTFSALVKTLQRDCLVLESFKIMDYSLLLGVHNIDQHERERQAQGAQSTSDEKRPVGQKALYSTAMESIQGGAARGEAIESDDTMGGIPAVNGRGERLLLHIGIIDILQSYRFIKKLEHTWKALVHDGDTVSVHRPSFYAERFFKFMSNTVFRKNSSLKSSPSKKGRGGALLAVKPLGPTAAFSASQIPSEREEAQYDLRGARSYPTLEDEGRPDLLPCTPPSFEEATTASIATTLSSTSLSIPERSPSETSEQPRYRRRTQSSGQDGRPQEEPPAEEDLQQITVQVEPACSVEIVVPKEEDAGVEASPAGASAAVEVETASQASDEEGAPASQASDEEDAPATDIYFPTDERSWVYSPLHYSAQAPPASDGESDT
T6 sequence (P42338 whole entry): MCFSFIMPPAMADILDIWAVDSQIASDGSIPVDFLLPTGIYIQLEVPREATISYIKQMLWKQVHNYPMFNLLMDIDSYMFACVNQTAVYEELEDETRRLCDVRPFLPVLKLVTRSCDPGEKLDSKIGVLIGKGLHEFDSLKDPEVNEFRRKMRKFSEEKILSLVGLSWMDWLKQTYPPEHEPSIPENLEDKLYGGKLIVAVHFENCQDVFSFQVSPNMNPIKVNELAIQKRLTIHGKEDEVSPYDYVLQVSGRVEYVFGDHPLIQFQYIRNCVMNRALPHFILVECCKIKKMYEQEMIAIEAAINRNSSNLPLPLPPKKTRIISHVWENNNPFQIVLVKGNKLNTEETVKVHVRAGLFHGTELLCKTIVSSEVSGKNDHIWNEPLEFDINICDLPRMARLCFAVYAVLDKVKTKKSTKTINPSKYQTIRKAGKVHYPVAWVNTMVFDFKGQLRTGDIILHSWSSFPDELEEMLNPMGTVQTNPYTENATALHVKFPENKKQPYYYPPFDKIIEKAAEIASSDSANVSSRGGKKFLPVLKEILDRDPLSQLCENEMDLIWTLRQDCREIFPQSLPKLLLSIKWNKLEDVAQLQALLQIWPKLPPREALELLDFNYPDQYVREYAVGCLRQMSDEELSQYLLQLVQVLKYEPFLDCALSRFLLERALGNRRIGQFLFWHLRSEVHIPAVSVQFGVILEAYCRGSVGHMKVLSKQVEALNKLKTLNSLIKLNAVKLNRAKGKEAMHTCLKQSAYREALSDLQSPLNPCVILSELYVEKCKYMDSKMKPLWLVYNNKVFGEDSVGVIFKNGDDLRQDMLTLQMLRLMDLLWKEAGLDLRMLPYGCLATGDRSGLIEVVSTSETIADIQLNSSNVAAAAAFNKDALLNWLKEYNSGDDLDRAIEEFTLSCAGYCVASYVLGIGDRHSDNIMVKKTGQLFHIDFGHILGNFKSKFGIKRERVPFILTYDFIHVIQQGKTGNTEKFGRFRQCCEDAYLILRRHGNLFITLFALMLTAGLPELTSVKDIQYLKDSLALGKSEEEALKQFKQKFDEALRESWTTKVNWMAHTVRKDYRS

CCN1CCN(c2ccc(Nc3ncnc(N(C)C(=O)Nc4c(Cl)c(OC)c(Cl)c(OC)c4Cl)n3)cc2)CC1 [MPT0L145, 1-(4-((4-(4-ethylpiperazin-1-yl)phenyl)amino)-1,3,5-triazin-2-yl)-1-methyl-3-(2,4,6-trichloro-3,5-dimethoxyphenyl)urea]
IC50 (HL-60): 4.72 ± 1.46 µM | IC50 (MOLT-4): 3.7 ± 0.2 µM | Viability (% of control cells) RT-112 (5 uM) Mean (RT-112; RT-112, 5 uM): 33.4 % of control cells | Viability (% of control cells) RT-112 (10 uM) Mean (RT-112; RT-112, 10 uM): 8.5 % of control cells | Viability (% of control cells) SNU-16 (5 uM) Mean (SNU-16): 36.9 % of control cells | IC50 (HT-29): 2.49 ± 0.29 µM | Viability (% of control cells) Hep3B (5 uM) Mean (Hep3B): 66.2 % of control cells | Viability (% of control cells) PLC5 (5 uM) Mean (PLC/PRF/5): 20.6 % of control cells | sensitivity of FGFR3-TACC3 fusion cells (RT-112, RT4) versus normal FGFR3 status (T24) [1]: more sensitive | Kd (CDK3): > 10 µM | Kd (AKT1): > 10 µM | Kd (BMPR2): > 10 µM | Kd (PDGFRA): > 10 µM | Kd (CSNK1D): > 10 µM | Kd (PIK3CB): > 10 µM | Kd (PIK3CD): > 10 µM | Kd (PIP5K1A): > 10 µM | Kd (PIK3C2G): > 10 µM | Kd (PIP5K2C): > 10 µM | Kd (PIK3C2B): 1000 nM | Kd (PIKFYVE): 2600 nM | Kd (PIP5K2B): > 10 µM | Kd (PIP5K1C): > 10 µM | Kd (PIK3C3): 0.53 nM
